Holding throughout (assay): inhibition of tumour cell growth, NCI panel, 48 h
Assay [1] concerns 786-0 renal.
Assay [2] concerns ACHN renal.
The subject of assay [3] is CCRF-CEM leukemia.
For assay [4], the system named is HCT-15 colon.
Assay [5] relates to HOP-92 NSCLC.
For assay [6], the system named is M14 melanoma.
Assay [7] concerns MOLT-4 leukemia.
The test system of assay [8] is SNB-75 CNS.
Assay [9] concerns SW-620 colon.
In assay [10] the test system is UACC-62 melanoma.

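Method: 48-hour compound exposure of cells in 96-well plates, five concentrations, linear interpolation of endpoints. GI50 = concentration required for 50% inhibition of growth. TGI: concentration producing complete growth inhibition.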

For the compound `O=C(/C=C/c1cc(CN2CCOCC2)c(O)c2ncccc12)c1cc(CN2CCOCC2)c(O)c2ncccc12`, the GI50 in assay [1] is 0.0802 µM; in assay [2], 0.0329 µM; in assay [3] it was 0.05 µM; in assay [4] it was 0.0236 µM; in assay [5] it was 0.0292 µM; in assay [6], 0.0506 µM. The GI50 in assay [7] is 0.0529 µM; in assay [8], 0.0595 µM; in assay [9], < 0.0186 µM; in assay [10], 0.0457 µM. For the same compound, the TGI in assay [1] was > 32.6 µM; in [2], > 100 µM; in [3], > 100 µM; in assay [4], > 100 µM; in [5], 0.525 µM; in assay [6] it was > 64.2 µM. Further, the TGI in assay [7] was > 100 µM; in [8], 42.6 µM; in [9], > 100 µM.
Take `N#C/C(=C/N1CCN(C(=O)c2ccco2)C1=S)C(=O)c1ccccc1`: the GI50 in [1] was 16.1 µM; in assay [2] it was 16.6 µM; in assay [3], 41.9 µM; in [4] it was 5.73 µM; in assay [5], 26.9 µM; in assay [6], 14.9 µM. Also, the GI50 is 43.7 µM in assay [7], 68.2 µM in [8], 5.94 µM in assay [9] and 12.9 µM in assay [10]. The TGI in assay [1] was 44.6 µM; in assay [2], 72.5 µM; in assay [3] it was > 100 µM; in assay [4], > 100 µM; in [5] it was > 100 µM; in assay [6], 36.8 µM. In addition, the TGI is > 100 µM in [7], > 100 µM in [8], 38.3 µM in assay [9] and 30.3 µM in assay [10].
Turning to `CC(C)OC(=O)NNc1cc(Cl)ccc1Cl`, the TGI in [1], in assay [2], in [3], in assay [4], in [5] and in [6] was > 100 µM throughout. Moreover, the TGI in [7], in assay [8], in [9] and in [10] was > 100 µM each time.
Turning to `Nc1nc(SN=Nc2ccc(S(N)(=O)=O)cc2)c2[nH]cnc2n1`, the GI50 is 0.407 µM in [1]; 1.6 µM in [2]; 0.268 µM in assay [3]; 0.563 µM in assay [4]; 0.429 µM in assay [5]; 0.393 µM in assay [6]. In addition, the GI50 in assay [7] is 0.32 µM; in assay [8], 0.354 µM; in assay [9], 0.659 µM; in assay [10], 0.379 µM. Also, the TGI in assay [1] was > 100 µM; in assay [2] it was > 100 µM; in assay [3], > 100 µM; in [4], > 100 µM; in assay [5], 22.4 µM; in assay [6] it was 9 µM. Moreover, the TGI was 6.93 µM in [7], > 21.7 µM in assay [8], > 100 µM in assay [9] and 5.62 µM in [10].
As to `COc1cc2ccc3c4cc(OC)c(OC(C)C)cc4cnc3c2cc1OC`, the TGI in assay [1], in assay [2], in assay [3], in assay [4], in assay [5] and in [6] was > 100 µM each time. Further, the TGI in [7], in [8], in assay [9] and in assay [10] was > 100 µM in each case.
Consider `C=C1C(=O)O[C@H]2[C@H]1CC/C(COC(=O)c1ccc(Cl)nc1)=C\CC[C@@]1(C)O[C@@H]21`, for which the GI50 in [1] is 1.75 µM; in assay [2], 1.68 µM; in assay [3], 1.22 µM; in assay [4], 1.36 µM; in assay [5], 2.18 µM; in [6], 1.71 µM. Also, the GI50 is 2.57 µM in assay [7], 12.4 µM in assay [8], 1.23 µM in assay [9] and 1.63 µM in assay [10]. In addition, the TGI in assay [1] worked out at 3.53 µM; in [2] it was 3.6 µM; in assay [3], 6.9 µM; in assay [4] it was 3.39 µM; in [5] it was 4.84 µM; in assay [6], 4.02 µM. The TGI in [7] came to 7.2 µM; in assay [8], 31.6 µM; in assay [9], 2.96 µM; in assay [10], 3.74 µM.
`O=C1c2ccc3c4ccccc4n(Cc4ccccc4)c3c2C(=O)N1c1ccccc1`: the TGI is 26.7 µM in [1]; > 50.5 µM in assay [2]; 3.68 µM in [3]; 22.7 µM in assay [4]; 26.9 µM in assay [5]; 27.9 µM in assay [6]. The TGI was determined as 9.54 µM in [7], 27.7 µM in assay [8], 20.1 µM in [9] and 31.7 µM in assay [10].
For `COc1ccc2c(c1)C(C)Cc1c(ncnc1-n1c(C)nc3ccccc31)N2C` (centres undefined), the GI50 was 5.83 µM in assay [1]; 6.56 µM in [2]; 2.85 µM in assay [3]; 1.83 µM in assay [4]; 3.34 µM in assay [5]; 2.62 µM in assay [6]. Moreover, the GI50 in assay [7] was 2.39 µM; in assay [8] it was 2.41 µM; in [9] it was 6.24 µM; in assay [10], 4.83 µM. Besides, the TGI in assay [1] was 29.2 µM; in assay [2], 23.1 µM; in [3], 16.4 µM; in assay [4] it was 16.9 µM; in assay [5], 17.4 µM; in assay [6], 15.4 µM. The TGI was determined as 12.5 µM in [7], 11.1 µM in [8], 28 µM in assay [9] and 22.3 µM in assay [10].
On to `O=C(Nc1cc(Cl)ccc1Cl)C(=O)C(c1cnc2ccccc2n1)[N+](=O)[O-]` (centres undefined), for which the TGI in assay [1], in assay [2], in assay [3], in assay [4], in assay [5] and in assay [6] was > 100 µM throughout. Moreover, the TGI in assay [7], in assay [8], in assay [9] and in assay [10] was > 100 µM each time.

The values are drawn from PubChem BioAssay (NCI).
